Laboratory results reported in US11779531B2, “Anti-inflammatory peptides, and uses thereof” (NURITAS LIMITED, priority 2015, dated 2023).

System: TNF-α secretion in THP1 cells
Test: TNF-α secretion by LPS-stimulated THP-1 differentiated cells after synthetic peptide treatment (Biolegend ELISA)
Assay type: cell-based, human
Settings: THP-1 cells, synthetic peptide 100, 10 or 1 ng/ml for 24 h, then 10 ng/ml LPS 5 h; vs untreated control; concentration behind the value not stated
Protocol: FIGS. 1 to 18: The effect of eighteen synthetic peptides of the invention on TNF-secretion in THP1 cells. All experiments were prepared in duplicate on three plates (6 wells/conditions). Significance was calculated using Students t-test (*p<0.05 compared to control, **p<0.01 compared to control, *** p<0.001 compared to control). The figures correspond with the following SEQ ID Nos: FIG. 1 is SEQ ID NO: 339, FIG. 2 is SEQ ID NO: 352, FIG. 3 is SEQ ID NO: 341, FIG. 4 is SEQ ID NO: 351, FIG. 5 is SEQ ID NO: 144, FIG. 6 is SEQ ID NO: 93, FIG. 7 is SEQ ID NO: 320, FIG. 8 is SEQ ID NO: 92, FIG. 9 is SEQ ID NO: 75, FIG. 10 is SEQ ID NO: 76, FIG. 11 is SEQ ID NO: 349, FIG. 12 is SEQ ID NO: 350, FIG. 13 is SEQ ID NO: 105, FIG. 14 is SEQ ID NO: 177, FIG. 15 is SEQ ID NO: 345, FIG. 16 is SEQ ID NO: 353, FIG. 17 is SEQ ID NO: 344, FIG. 18 is SEQ ID NO: 346.
FIGS. 26 to 28. The effect of three synthetic peptides of the invention on TNF-secretion in THP1 cells. All experiments were prepared in duplicate on three plates (6 wells/conditions). Significance was calculated using Students t-test (*p<0.05 compared to control, **p<0.01 compared to control, ***p<0.001 compared to control). The figures correspond with the following SEQ ID Nos: FIG. 26 is SEQ ID NO: 85, FIG. 27 is SEQ ID NO: 91, FIG. 28 is SEQ ID NO: 420.
TNF-α is secreted by macrophages in response to stimulation by endotoxins such as lipopolysaccharides (LPS). TNF-α is thought to be involved in systemic inflammation and dysregulation of TNF-α production is thought to be involved in many diseases. The Biolegend assay is a sandwich ELISA kit that is designed for the accurate quantitation of human TNF-α from cell culture supernatant, serum or plasma.
THP-1 monocytes were seeded in a 96 well plate at 10,000 cells per well in RPMI containing 10% fetal calf serum (FCS), 1% Pen/strep, 1% L-glutamine, 100 nM PMA and allowed to differentiated for 72 h prior to experimentation.
Following differentiation the cells were incubated with 100 ng/ml, 10 ng/ml or 1 ng/ml synthetic peptide for 24 h respectively.
Following treatment the cells were stimulated with 10 ng/ml LPS for 5 h and the quantity of TNF-α in the supernatant determined using the Biolegend assay ELISA kit.
Results were calculated as a percentage of the untreated control. An increase in optical density reading indicates greater quantity of TNF-a release into cell culture supernatant.
All experiments were prepared in duplicate on three plates (6 wells/conditions). Significance was calculated using Students t-test (*p<0.05 compared to control, **p<0.01 compared to control, ***p<0.001 compared to control).

**Q.** Which “TNF-α DECREASE” value does the source give for 75 (LSSGDVFVIPAGHPVAVK) [compound 75] here?
**A.** 11%

**Q.** Which “TNF-α DECREASE” value does the source give for 76 (EDDEEEEQGEEEINK) [compound 76] here?
**A.** 9%

**Q.** With “85 (SKPHTIFLPQHTDADYILVVLSGK) [compound 85]” as the substance, how does the “TNF-α DECREASE” value read?
**A.** 80%

**Q.** Which “TNF-α DECREASE” value does the source give for “91 (PGQLQSFLLSGNQNQQNYLSGFSK) [compound 91]” here?
**A.** 80%

**Q.** Which “TNF-α DECREASE” value does the source give for “92 (FFELTPEKNQQLQDLDLFVNSVDLK) [compound 92]” here?
**A.** 13%

**Q.** 93 (QLEELSK) [compound 93] was tested. Which “TNF-α DECREASE” value did it give?
**A.** 14%

**Q.** How did the “TNF-α DECREASE” value turn out when 105 (PSYEKQEDEEEKQK) [compound 105] was run?
**A.** 9%

**Q.** Which “TNF-α DECREASE” value does the source give for 144 (SIFRALPND) [compound 144] here?
**A.** 16%

**Q.** For 320 (RGPQQYAEWQINE) [compound 320], which “TNF-α DECREASE” value is on record?
**A.** 13%

**Q.** Which “TNF-α DECREASE” value does the source give for 339 (QSFLLSGNQNQQ) [compound 339] here?
**A.** 26%

**Q.** With 341 (RGPQQYA) [compound 341] as the substance, how does the “TNF-α DECREASE” value read?
**A.** 21%

**Q.** Which “TNF-α DECREASE” value does the source give for 344 (GYYGEQQQQPGMTR) [compound 344] here?
**A.** 20%

**Q.** For 345 (IDGYDTPVEGR) [compound 345], which “TNF-α DECREASE” value is on record?
**A.** 23%

**Q.** Which “TNF-α DECREASE” value does the source give for 346 (NGVLRPGQL) [compound 346] here?
**A.** 18%

**Q.** For 349 (TVFDGVLRPGQL) [compound 349], which “TNF-α DECREASE” value is on record?
**A.** 6%

**Q.** 351 (HGPVEMPYTLLYPSSK) [compound 351] was tested. Which “TNF-α DECREASE” value did it give?
**A.** 18%

**Q.** Which “TNF-α DECREASE” value does the source give for 352 (LDALEPDNR) [compound 352] here?
**A.** 23%

**Q.** Which “TNF-α DECREASE” value does the source give for 420 (RLQSQNDQRGEIIHVK) [compound 420] here?
**A.** 80%
